Source: ChEMBL document CHEMBL1155686, “Luteolin, a compound with adenosine A(1) receptor-binding activity, and chromone and dihydronaphthalenone constituents from Senna siamea” (J Nat Prod, 2000)

Each molecule was assayed against T1, Adenosine receptor A1 (Rattus norvegicus, UniProt P25099) (assay: Displacement of [3H]DPCPX from adenosine A1 receptor in rat brain cortex membrane).
T1 sequence (P25099 whole entry): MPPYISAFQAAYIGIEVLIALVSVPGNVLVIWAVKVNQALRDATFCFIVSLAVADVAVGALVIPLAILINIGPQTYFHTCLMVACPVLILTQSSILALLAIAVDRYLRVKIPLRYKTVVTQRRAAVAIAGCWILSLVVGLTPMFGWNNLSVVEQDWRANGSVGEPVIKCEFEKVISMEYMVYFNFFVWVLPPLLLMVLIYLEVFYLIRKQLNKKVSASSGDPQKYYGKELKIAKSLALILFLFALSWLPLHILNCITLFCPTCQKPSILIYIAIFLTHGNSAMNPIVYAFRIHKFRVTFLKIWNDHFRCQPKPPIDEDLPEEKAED
Assay type: cell membranes

| Ki [µM] | SMILES |
| --- | --- |
| > 50 | CC(=O)Cc1cc(O)cc2oc(CO)cc(=O)c12 |
| > 50 | CC(=O)Cc1cc(O)cc2oc(C)cc(=O)c12 |
| > 50 | CC(=O)[C@@H]1c2cc(O)cc(O)c2C(=O)C[C@]1(C)O (relative stereo) |
| > 50 | CC(=O)[C@@H]1c2cc(O)cc(O)c2C(=O)C[C@@]1(C)O (relative stereo) |

| SMILES | Ki [µM] |
| --- | --- |
| O=c1cc(-c2ccc(O)c(O)c2)oc2cc(O)cc(O)c12 [LUTEOLIN] | 1.66 |

Each molecule was assayed against T1, Adenosine receptor A1 (assay: Displacement of [3H]DPCPX from adenosine A1 receptor in rat brain cortex membrane in presence of 0.5 mM GTP).
Assay type: cell membranes

| SMILES | Ki [µM] |
| --- | --- |
| O=c1cc(-c2ccc(O)c(O)c2)oc2cc(O)cc(O)c12 [LUTEOLIN] | 1.55 |
